Results reported in the OligoGym collection.
HELM strings list units from the 5' end as sugar, base in round brackets, then linkage (d deoxyribose, r ribose, m 2'-O-methyl, p phosphodiester). Strings are as the collection lists them; they lack the last nucleoside at the 3' end of the tested compound. [moe] = 2'-O-(2-methoxyethyl) (MOE); [sp] = phosphorothioate linkage; [m5C] = 5-methylcytosine

Molecular target: GFAP
Experiment: mouse, dose not given
Settings: ASO

Row | Substance | 3 h FOB score
1 | RNA1{[moe](T)[sp].[moe](T)p.[moe](G)p.[moe](T)p.d(G)[sp].d(A)[sp].d(T)[sp].d(T)[sp].d(T)[sp].d(T)[sp].d([m5C])[sp].d([m5C])[sp].d([m5C])[sp].d([m5C])[sp].[moe](G)p.[moe](T)p.[moe]([m5C])p.[moe](T)[sp].[moe](T)}$$$$ (last 3' nucleoside missing) | 0 score 0-7
2 | RNA1{[moe](T)[sp].[moe](T)p.[moe](G)p.[moe](T)p.d([m5C])[sp].d(T)[sp].d(T)[sp].d(T)[sp].d(A)[sp].d(T)[sp].d(T)[sp].d(T)[sp].d(T)[sp].d(T)[sp].[moe]([m5C])p.[moe]([m5C])p.[moe](T)p.[moe]([m5C])[sp].[moe](A)}$$$$ (last 3' nucleoside missing) | 2 score 0-7
3 | RNA1{[moe](T)[sp].[moe](T)p.[moe](T)p.[moe](A)p.[moe](T)[sp].d(T)[sp].d(T)[sp].d(T)[sp].d(T)[sp].d([m5C])[sp].d([m5C])[sp].d(T)[sp].d([m5C])[sp].[moe](A)p.[moe](G)p.[moe]([m5C])[sp].[moe](G)}$$$$ (last 3' nucleoside missing) | 1 score 0-7
4 | RNA1{[moe](T)[sp].[moe](T)p.[moe](T)p.[moe](A)p.[moe](T)[sp].d(T)[sp].d(T)[sp].d(T)[sp].d(T)[sp].d([m5C])[sp].d([m5C])[sp].d(T)[sp].d([m5C])[sp].d(A)[sp].d(G)[sp].[moe]([m5C])p.[moe](G)p.[moe](A)[sp].[moe]([m5C])}$$$$ (last 3' nucleoside missing) | 2 score 0-7
5 | RNA1{[moe](T)[sp].[moe](T)p.[moe](T)p.[moe](A)p.[moe](T)p.[moe]([m5C])p.d(T)[sp].d(G)[sp].d(T)[sp].d(G)[sp].d([m5C])[sp].d(T)[sp].d(T)[sp].d(T)[sp].d(A)[sp].d(G)[sp].[moe](T)p.[moe](G)[sp].[moe](A)}$$$$ (last 3' nucleoside missing) | 3 score 0-7
6 | RNA1{[moe](T)[sp].[moe](T)p.[moe](T)p.[moe](A)p.d(T)[sp].d(T)[sp].d(T)[sp].d(T)[sp].d(T)[sp].d([m5C])[sp].d([m5C])[sp].d(T)[sp].d([m5C])[sp].d(A)[sp].[moe](G)p.[moe]([m5C])p.[moe](G)p.[moe](A)[sp].[moe]([m5C])}$$$$ (last 3' nucleoside missing) | 0 score 0-7
7 | RNA1{[moe](T)[sp].[moe](T)p.[moe](T)p.[moe](G)p.[moe](A)[sp].d(G)[sp].d(A)[sp].d(T)[sp].d(A)[sp].d(T)[sp].d([m5C])[sp].d(T)[sp].d(T)[sp].[moe](G)p.[moe](T)p.[moe](G)[sp].[moe](A)}$$$$ (last 3' nucleoside missing) | 3 score 0-7
8 | RNA1{[moe](T)[sp].[moe](T)p.[moe](T)p.[moe](G)p.[moe](A)p.d(G)[sp].d(A)[sp].d(T)[sp].d(A)[sp].d(T)[sp].d([m5C])[sp].d(T)[sp].d(T)[sp].d(G)[sp].d(T)[sp].[moe](G)p.[moe](A)p.[moe]([m5C])[sp].[moe]([m5C])}$$$$ (last 3' nucleoside missing) | 3 score 0-7
9 | RNA1{[moe](T)[sp].[moe](T)p.[moe](T)p.[moe](G)p.[moe](G)p.[moe]([m5C])p.d(A)[sp].d(G)[sp].d(T)[sp].d(A)[sp].d(T)[sp].d(T)[sp].d(A)[sp].d([m5C])[sp].d([m5C])[sp].d(T)[sp].[moe]([m5C])p.[moe](T)[sp].[moe](A)}$$$$ (last 3' nucleoside missing) | 0 score 0-7
10 | RNA1{[moe](T)[sp].[moe](T)p.[moe](T)p.[moe](G)p.[moe](G)p.d(T)[sp].d(G)[sp].d([m5C])[sp].d(T)[sp].d(T)[sp].d(T)[sp].d(T)[sp].d(G)[sp].d([m5C])[sp].d([m5C])[sp].[moe]([m5C])p.[moe]([m5C])p.[moe]([m5C])[sp].[moe](T)}$$$$ (last 3' nucleoside missing) | 2 score 0-7
11 | RNA1{[moe](T)[sp].[moe](T)p.[moe](T)p.[moe](G)p.[moe](G)p.d([m5C])[sp].d(A)[sp].d(G)[sp].d(T)[sp].d(A)[sp].d(T)[sp].d(T)[sp].d(A)[sp].d([m5C])[sp].d([m5C])[sp].[moe](T)p.[moe]([m5C])p.[moe](T)[sp].[moe](A)}$$$$ (last 3' nucleoside missing) | 1 score 0-7
12 | RNA1{[moe](T)[sp].[moe](T)p.[moe](T)p.[moe](G)p.[moe](T)[sp].d([m5C])[sp].d(T)[sp].d(T)[sp].d(T)[sp].d(A)[sp].d(T)[sp].d(T)[sp].d(T)[sp].[moe](T)p.[moe](T)p.[moe]([m5C])[sp].[moe]([m5C])}$$$$ (last 3' nucleoside missing) | 0 score 0-7
13 | RNA1{[moe](T)[sp].[moe](T)p.[moe](T)p.[moe](G)p.[moe](T)[sp].d([m5C])[sp].d(T)[sp].d(T)[sp].d(T)[sp].d(A)[sp].d(T)[sp].d(T)[sp].d(T)[sp].d(T)[sp].d(T)[sp].[moe]([m5C])p.[moe]([m5C])p.[moe](T)[sp].[moe]([m5C])}$$$$ (last 3' nucleoside missing) | 0 score 0-7
14 | RNA1{[moe](T)[sp].[moe](T)p.[moe](T)p.[moe](G)p.[moe](T)p.[moe]([m5C])p.d(T)[sp].d(T)[sp].d(T)[sp].d(A)[sp].d(T)[sp].d(T)[sp].d(T)[sp].d(T)[sp].d(T)[sp].d([m5C])[sp].[moe]([m5C])p.[moe](T)[sp].[moe]([m5C])}$$$$ (last 3' nucleoside missing) | 0 score 0-7
15 | RNA1{[moe](T)[sp].[moe](T)p.[moe](T)p.[moe](G)p.d(G)[sp].d([m5C])[sp].d(A)[sp].d(G)[sp].d(T)[sp].d(A)[sp].d(T)[sp].d(T)[sp].d(A)[sp].d([m5C])[sp].[moe]([m5C])p.[moe](T)p.[moe]([m5C])p.[moe](T)[sp].[moe](A)}$$$$ (last 3' nucleoside missing) | 1 score 0-7
16 | RNA1{[moe](T)[sp].[moe](T)p.[moe](T)p.[moe](G)p.d(T)[sp].d([m5C])[sp].d(T)[sp].d(T)[sp].d(T)[sp].d(A)[sp].d(T)[sp].d(T)[sp].d(T)[sp].d(T)[sp].[moe](T)p.[moe]([m5C])p.[moe]([m5C])p.[moe](T)[sp].[moe]([m5C])}$$$$ (last 3' nucleoside missing) | 1 score 0-7
17 | RNA1{[moe](T)[sp].[moe](T)p.[moe](T)p.[moe](T)p.[moe](G)[sp].d(T)[sp].d(G)[sp].d(T)[sp].d(G)[sp].d(T)[sp].d(G)[sp].d(A)[sp].d(G)[sp].d(T)[sp].d(A)[sp].[moe](A)p.[moe](G)p.[moe](A)[sp].[moe](A)}$$$$ (last 3' nucleoside missing) | 7 score 0-7
18 | RNA1{[moe](T)[sp].[moe](T)p.[moe](T)p.[moe](T)p.d(G)[sp].d(A)[sp].d(G)[sp].d(A)[sp].d(T)[sp].d(A)[sp].d(T)[sp].d([m5C])[sp].d(T)[sp].d(T)[sp].[moe](G)p.[moe](T)p.[moe](G)p.[moe](A)[sp].[moe]([m5C])}$$$$ (last 3' nucleoside missing) | 3 score 0-7
19 | RNA1{[moe](T)[sp].[moe](T)p.[moe](T)p.[moe]([m5C])p.[moe](T)[sp].d([m5C])[sp].d(T)[sp].d([m5C])[sp].d([m5C])[sp].d(T)[sp].d(G)[sp].d(T)[sp].d(T)[sp].d(T)[sp].d([m5C])[sp].[moe](A)p.[moe](G)p.[moe]([m5C])[sp].[moe](A)}$$$$ (last 3' nucleoside missing) | 3 score 0-7
